Results on eleven molecules are retold here after PubChem BioAssay (NCI).

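All cell lines were grown in 96-well plates and treated with compound for 48 hours. Abbreviation: GI50, concentration required for 50% inhibition of growth. TGI is the concentration that stops growth completely.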 Some results are limits rather than exact numbers.

Some test systems named below: HL-60(TB) leukemia; 786-0 renal; SF-295 CNS; OVCAR-8 ovarian; SN12C renal; HT29 colon; HOP-92 NSCLC; OVCAR-3 ovarian; NCI-H460 lung; SR leukemia.
Common to all, as to test: inhibition of tumour cell growth, NCI panel, 48 h

On to `CN(C)CCNC(=O)c1cccc2ccc(-c3ccncc3)nc12`, for which the TGI was 7.59 µM in the test with HL-60(TB) leukemia; 34.2 µM in the test on 786-0 renal; 14.8 µM in the test with SF-295 CNS; above 100 µM with OVCAR-8 ovarian; 15.4 µM in the test with SN12C renal; 13.8 µM in the test with HT29 colon. Further, the TGI in the test on HOP-92 NSCLC came to 7.31 µM; with OVCAR-3 ovarian, 14.4 µM.

As for `Cc1ccc(NC(=O)CC(=O)n2nc(C)c(N=Nc3ccccc3C(=O)O)c2C)cc1`, the TGI in the test on HL-60(TB) leukemia, in the test on 786-0 renal, in the test with SF-295 CNS, with NCI-H460 lung, with OVCAR-8 ovarian and in the test with SN12C renal was above 100 µM throughout. Moreover, the TGI in the test on HT29 colon and in the test on OVCAR-3 ovarian was above 100 µM each time.

On to `CCCC(=O)OCC1OC(n2cnc3c(=S)nc[nH]c32)C(OC(=O)CCC)C1OC(=O)CCC` (centres undefined), for which the GI50 in the test with HL-60(TB) leukemia was 2600 nM; in the test with 786-0 renal it was 3.46 µM; with SF-295 CNS, 3.53 µM; with NCI-H460 lung, 8.13 µM; in the test on OVCAR-8 ovarian, 4.2 µM; in the test on SN12C renal, 4.58 µM. For the same molecule, the GI50 in the test with HT29 colon was 3630 nM; in the test on SR leukemia, 2020 nM; with OVCAR-3 ovarian it was 920 nM. The TGI with HL-60(TB) leukemia is 9.96 µM; in the test on 786-0 renal, above 100 µM; with SF-295 CNS, above 100 µM; with NCI-H460 lung, above 100 µM; in the test with OVCAR-8 ovarian it was above 100 µM; in the test with SN12C renal it was above 100 µM. In addition, the TGI in the test on HT29 colon was above 100 µM; in the test on SR leukemia, 40.2 µM; with OVCAR-3 ovarian it was above 100 µM.

As for `O=C(Nc1ccncc1)C(=O)c1cn(S(=O)(=O)c2cccc(F)c2)c2ccccc12`, the GI50 is 3360 nM in the test on HL-60(TB) leukemia; 3.64 µM in the test on 786-0 renal; 2.84 µM in the test with SF-295 CNS; 13 µM with NCI-H460 lung; 5.21 µM in the test on OVCAR-8 ovarian; 5.25 µM with SN12C renal. Further, the values for the GI50 in the test with HT29 colon, with SR leukemia and in the test with OVCAR-3 ovarian were 1770 nM, 552 nM and 2650 nM, respectively. Further, the TGI in the test on HL-60(TB) leukemia is above 100 µM; in the test with 786-0 renal, above 100 µM; with SF-295 CNS it was 27.5 µM; with NCI-H460 lung, above 100 µM; with OVCAR-8 ovarian it was above 100 µM; with SN12C renal, above 100 µM. The figures for the TGI in the test on HT29 colon, in the test with SR leukemia and in the test with OVCAR-3 ovarian were 14.9 µM, above 100 µM and 12.5 µM, respectively.

Turning to `CCCCCCCCn1ccc2cc(NC(=O)Cn3cc(CN4CCCC4)nn3)ccc21`, the GI50 with HL-60(TB) leukemia is 1830 nM; in the test on 786-0 renal, 1.69 µM; in the test on SF-295 CNS it was 1.87 µM; in the test with NCI-H460 lung, 1.82 µM; in the test on OVCAR-8 ovarian, 2 µM; in the test with SN12C renal, 1.74 µM. Also, the GI50 is 1970 nM with HT29 colon, 2300 nM in the test with SR leukemia and 2130 nM with OVCAR-3 ovarian. Also, the TGI was 3.8 µM in the test with HL-60(TB) leukemia; 3.13 µM in the test on 786-0 renal; 3.72 µM with SF-295 CNS; 3.51 µM in the test on NCI-H460 lung; 4.09 µM in the test with OVCAR-8 ovarian; 3.29 µM with SN12C renal. Besides, the values for the TGI in the test with HT29 colon, with SR leukemia and with OVCAR-3 ovarian were 4.09 µM, 6.34 µM and 4.9 µM, respectively.

In the case of `CCCC1N2CCCCC2[C@@H]2c3[nH]c4ccccc4c3CCN12` (some centres undefined), the TGI in the test with HL-60(TB) leukemia, in the test on 786-0 renal, in the test with SF-295 CNS, in the test on NCI-H460 lung, with OVCAR-8 ovarian and in the test with SN12C renal was above 100 µM throughout. In addition, the TGI in the test with HT29 colon, with HOP-92 NSCLC and with OVCAR-3 ovarian was above 100 µM in each case.

`CCOC(=O)/C(C#N)=C/c1[nH]c(C(=O)OCc2ccccc2)c(C)c1C`: the TGI in the test on HL-60(TB) leukemia, in the test with 786-0 renal, in the test on SF-295 CNS, in the test with NCI-H460 lung, in the test with OVCAR-8 ovarian and with SN12C renal was above 100 µM each time. In addition, the TGI with HT29 colon, in the test with HOP-92 NSCLC and in the test on OVCAR-3 ovarian was above 100 µM in each case.

For `Nc1cccc(S(=O)(=O)NCC(=O)O)c1`, the TGI in the test on 786-0 renal, in the test with SF-295 CNS, in the test with NCI-H460 lung, in the test on OVCAR-8 ovarian, in the test on SN12C renal and in the test on HT29 colon was above 100 µM each time. Further, the TGI in the test with OVCAR-3 ovarian was above 100 µM.

As for `CC/C=C\C[C@H](F)C/C=C1/C(=O)C=C[C@@H]1C/C=C\CCCC(=O)O`, the GI50 in the test on HL-60(TB) leukemia was 3410 nM; with 786-0 renal, 7.24 µM; with SF-295 CNS it was 7.54 µM; in the test with NCI-H460 lung it was 9.35 µM; in the test on OVCAR-8 ovarian, 1.21 µM; with SN12C renal it was 7.01 µM. Moreover, the GI50 is 5400 nM with HT29 colon, 1040 nM with SR leukemia and 7960 nM in the test on OVCAR-3 ovarian. Besides, the TGI with HL-60(TB) leukemia was 16.8 µM; in the test on 786-0 renal, 13.3 µM; with SF-295 CNS, 17.2 µM; with NCI-H460 lung, 30.9 µM; in the test on OVCAR-8 ovarian it was 5.71 µM; with SN12C renal it was 20.5 µM. The TGI turned out to be 15 µM with HT29 colon, 7.49 µM with SR leukemia and 22.1 µM in the test on OVCAR-3 ovarian.

As for `COc1cc(C(=O)CBr)c(OC)cc1C`, the TGI in the test with HL-60(TB) leukemia, in the test on 786-0 renal, in the test with SF-295 CNS, in the test with OVCAR-8 ovarian, in the test on SN12C renal and with HT29 colon was above 100 µM each time. In the test on SR leukemia, this molecule came in with a TGI above 100 µM.

With `CC1OC(OC2C(OC(=O)[C@]34CCC(C)(C)CC3C3=CCC5[C@@]6(C)C[C@H](O)[C@H](OC7OC(CO)C(O)C(O)C7N)[C@@](C)(C(=O)O)C6CC[C@@]5(C)C3(C)CC4)OCC(O)C2O)C(O)C(O)C1OC1OCC(O)C(O)C1O` (some centres undefined), the TGI with HL-60(TB) leukemia, in the test on 786-0 renal, in the test with SF-295 CNS, in the test with NCI-H460 lung, in the test on OVCAR-8 ovarian and in the test with SN12C renal was above 100 µM in each case. Besides, the TGI in the test with HT29 colon, with HOP-92 NSCLC and in the test with OVCAR-3 ovarian was above 100 µM in each case.
